From patent US20150366787A1, “SESBANIA ACULEATA EXTRACTS AND METHODS OF USE” (AVON PRODUCTS, INC., priority 2013, published 2015) come the findings set out here.

This test deals with dorsal forearm skin. Put plainly: In vivo biopsy (dorsal forearm, histology). Also on record: species or system human. The settings on record: 3 weeks semi-occlusion patch, retinol 0.05%. The protocol: Healthy female Caucasian subjects aged 30-65, with skin type II or III and mild to moderate photo damage, were treated on the dorsal forearm for 3 weeks (3 consecutive rounds of 5×24 hour) under semi-occlusion patches. Test articles including active ingredients, vehicle controls, and retinol were applied in a randomized allocation on 6 sites on each forearm. The application dose was 2 mg/cm^2. After 3 week treatment, a 2 mm punch biopsy was obtained from each treatment site and fixed in 10% buffered formalin. Tissue samples then embedded in paraffin, sectioned (5 μm thickness), and stained for skin markers after re-hydration. […] Retinol at a active concentration of 0.05% was used a positive control. Retinol use at a 0.05% active concentration in the semi-occlusion patch vehicle formulation yielded a visual score of approximately 0.56 out of a 4 point scale in HE staining (measuring hematoxylin and eosin staining, an indication of viable epidermal thickness and health) with 63.6% of the subjects showing an improvement; a visual score of 0.6 out of a 4 point scale in M-TC staining (Masson's trichrome staining, assessing total mature fiber-forming collagen in the dermis—mainly Collagen I, […] and Collagen V) with 51.6% of the subjects showing an improvement; a visual score of 0.52 out of a 4 point scale for pro-Col (measuring new synthesis of Collagen I by skin fibroblasts in the dermis) with 51.6% of the subjects showing an improvement; and a visual score of 0.57 out of a 4 point scale for HA (measuring level of hyaluronic acid in both dermis and epidermis) with 50% of the subjects showing an improvement.

Where [1] appears, read: out of a 4 point scale, extract 0.33%.

SMILES strings stand for the structures.

For the compound `CC1=C(/C=C/C(C)=C/C=C/C(C)=C/CO)C(C)(C)CCC1` [Retinol], for the setting “extract 0.33%”, the “subjects showing an improvement, HA” value was determined as 50%; the “subjects showing an improvement, HE staining” value stood at 63.6%; the “subjects showing an improvement, M-TC staining” value was 51.6%; the “subjects showing an improvement, pro-Col” value worked out at 51.6%. Moreover, where the note is “out of a 4 point scale, 2 mg/cm^2, extract 0.33% (Example 1B ethanol/water extract)”, the “visual score in HE staining (viable epidermal thickness and health)” value is “approximately 0.56”. In addition, under setting [1], the “visual score for HA (hyaluronic acid in dermis and epidermis)” value is 0.57; the “visual score for pro-Col (new synthesis of Collagen I)” value was 0.52; the “visual score in M-TC staining (total mature fiber-forming collagen in the dermis)” value amounted to 0.6.
